US10889581B2, “Cyclopropyl fused thiazine derivatives as beta-secretase inhibitors and methods of use” (AMGEN INC., priority 2016, dated 2021)

Assays:
Aβ peptide [1] = details: oral dose of 95 mg once daily; cited from earlier work
Aβ peptide [2] = details: nonhuman primates; cited from earlier work
[3] = cited from earlier work
[4] = tested on: pigment epithelium of the rat's eye; details: higher compound dose given for three months; cited from earlier work
Aβ peptide [5] = details: sustained and dose-dependent; cited from earlier work
BACE1 [6] = target: T1, BACE1 (Homo sapiens (Human), UniProt P56817); assay: In vitro enzymatic BACE1 FRET assay; assay type: biochemical; details: pH 4.5, read-out: BACE1 Enzyme IC50
Target sequence in this assay (P56817 46-501): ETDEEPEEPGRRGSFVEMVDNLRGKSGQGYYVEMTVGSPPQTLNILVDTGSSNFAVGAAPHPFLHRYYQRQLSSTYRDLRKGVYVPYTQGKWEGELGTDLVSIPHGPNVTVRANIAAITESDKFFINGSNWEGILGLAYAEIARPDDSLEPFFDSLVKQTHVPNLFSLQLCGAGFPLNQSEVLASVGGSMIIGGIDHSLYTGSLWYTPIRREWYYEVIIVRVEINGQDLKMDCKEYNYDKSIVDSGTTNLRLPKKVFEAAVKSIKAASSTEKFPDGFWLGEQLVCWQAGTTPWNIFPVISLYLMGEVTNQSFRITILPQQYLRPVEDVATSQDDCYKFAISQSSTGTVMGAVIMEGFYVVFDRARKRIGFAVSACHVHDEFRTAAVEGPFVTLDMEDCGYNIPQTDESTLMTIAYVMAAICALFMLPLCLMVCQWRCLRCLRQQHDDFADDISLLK

Recombinant CatD = Recombinant CatD (Homo sapiens (Human), UniProt P07339); assay: In vitro enzymatic Cathepsin D (CatD) FRET assay; assay type: biochemical; details: pH 3.5, read-out: Cat D Enzyme IC50
Sequence of Recombinant CatD (P07339 65-412): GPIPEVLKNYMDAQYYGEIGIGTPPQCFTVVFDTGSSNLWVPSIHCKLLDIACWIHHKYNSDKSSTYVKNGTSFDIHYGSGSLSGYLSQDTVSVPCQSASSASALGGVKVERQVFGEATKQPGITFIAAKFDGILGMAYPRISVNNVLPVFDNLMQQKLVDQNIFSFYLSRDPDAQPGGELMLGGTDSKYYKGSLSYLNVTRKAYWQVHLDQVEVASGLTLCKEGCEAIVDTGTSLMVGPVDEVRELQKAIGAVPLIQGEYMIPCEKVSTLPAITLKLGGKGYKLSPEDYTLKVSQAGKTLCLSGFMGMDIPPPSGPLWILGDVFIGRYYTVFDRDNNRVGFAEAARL

BACE1 [7] = target: T1, BACE1; assay: In vitro BACE1 cell-based assay (Aβ40 in conditioned medium of cells stably expressing APP, HTRF); details: Aβ40, 24 h incubation; read-out: BACE1 Cell IC50
Description: In Vitro BACE1 Cell-Based Assay
The cell-based assay measures inhibition or reduction of Aβ40 in conditioned medium of test compound treated cells expressing amyloid precursor protein. Cells stably expressing Amyloid Precursor Protein (APP) were plated at a density of 45K cells/well in 384 well plates (Corning/BioCoat 354663). The test compounds were then added to cells in 22-point dose response concentrations with the starting concentration being 62.5 μM. The compounds were diluted from stock solutions in DMSO and the final DMSO concentration of the test compounds on cells was 0.625%. The cells were cultivated overnight at 37° C. and 5% CO2 in DMEM supplemented with 10% FBS. After 24 h of incubation with the test compounds, the conditioned media was collected and the Aβ40 levels were determined using HTRF (Homogeneous Time Resolved Fluorescence). The IC50 of the compound was calculated from the percent of control or percent inhibition of Aβ40 as a function of the concentration of the test compound.
The HTRF to detect Aβ40 was performed in 384 well plates (Costar 3658). The antibody pair that were used to detect Aβ40 from cell supernatants were ConfAb40 antibody (Amgen in-house) and biotinylated 6E10 (BIOLEGEND). As an alternative to ConfAb40, a commercially available antibody, Anti-beta Amyloid 1-40 antibody [BDI350] from Abcam, Cambridge, Mass. 02139-1517 (Product code: ab20068), may be used in this assay. The concentrations were 0.35 μg/mL of ConfAb40 antibody and 1.33 μg/mL of 6E10-biotinylated antibody, as well as 4.5 μg/mL of Streptavidin Allophycocyanin Conjugate (ThermoFisher Scientific) in HTRF Buffer ([…], 1% BSA, 0.5% Tween 20).
The conditioned media was incubated with above antibodies and Streptavidin Allophycocyanin Conjugate for 30-60 minutes at 23° C. The final readout was performed on Envision from PerkinElmer.
Target sequence in this assay (P56817 46-501, species assumed): as the sequence (P56817 46-501) above

human recombinant BACE2 = human recombinant BACE2 (Homo sapiens (Human), UniProt Q9Y5Z0); assay: In vitro enzymatic BACE2 FRET assay; assay type: biochemical; details: pH 4.5, read-out: BACE2 Enzyme IC50
Sequence of human recombinant BACE2 (Q9Y5Z0 63-518): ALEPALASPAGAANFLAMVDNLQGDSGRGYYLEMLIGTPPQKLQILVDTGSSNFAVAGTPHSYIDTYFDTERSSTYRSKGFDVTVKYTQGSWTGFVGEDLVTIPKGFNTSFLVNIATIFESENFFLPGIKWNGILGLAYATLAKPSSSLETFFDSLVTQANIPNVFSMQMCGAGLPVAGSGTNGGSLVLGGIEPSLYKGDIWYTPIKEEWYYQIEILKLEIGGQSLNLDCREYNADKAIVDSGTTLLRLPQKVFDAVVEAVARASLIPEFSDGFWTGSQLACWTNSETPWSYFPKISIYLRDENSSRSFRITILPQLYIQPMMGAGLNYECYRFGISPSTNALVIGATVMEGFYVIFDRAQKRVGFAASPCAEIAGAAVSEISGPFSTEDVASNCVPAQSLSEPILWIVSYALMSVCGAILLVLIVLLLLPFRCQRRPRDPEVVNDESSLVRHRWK

| IC50 (BACE1 [6]) [nM] | IC50 (Recombinant CatD) [nM] | IC50 (BACE1 [7]) [nM] | IC50 (human recombinant BACE2) [nM] | Structure (SMILES) | further results |
| --- | --- | --- | --- | --- | --- |
|  |  |  |  | C[C@@]1(c2cc(NC(=O)c3ccc(C#N)cn3)ccc2F)C=CSC(N)=N1 [JNJ-54861911] | Aβ peptide reduction in CSF (Aβ peptide [1]): up to 95% |
|  |  |  |  | C[C@H]1OC[C@]2(c3cc(NC(=O)c4cnc(C(F)F)cn4)ccc3F)N=C(N)SC[C@H]12 [Example E2609] | reduction in Aβ peptide levels in the CSF and plasma (Aβ peptide [2]): significant reduction; clinical safety concerns ([3]; repeated doses up to 200 mg, phase I clinical trial): did not show clinical significant safety concerns |
|  |  |  |  | C[C@@]1(c2cc(-c3cncnc3)c(F)cc2F)CCSC(N)=N1 [LY 2811376] | eye toxicity finding [4]: damaged the pigment epithelium of the rat's eye |
|  |  |  |  | CN1C(=N)N[C@](C)(c2cc(NC(=O)c3ccc(F)cn3)ccc2F)CS1(=O)=O [MK-8931] | CSF Aβ peptide concentrations (Aβ peptide [5]): significantly reduced; safety profile ([3]; phase I clinical trials): excellent safety profile with no immediately noticeable side effects |
| 19 | 300000 | 72 | 405 | N#Cc1ccc(C#Cc2ccc(F)c([C@@]3(CF)N=C(N)S[C@@]4(/C=C/C(=O)N5CCOCC5)C[C@H]43)c2)nc1 [Example 111, 6-((3-((1R,5S,6S)-3-amino-5-(fluoromethyl)-1-((E)-3-morpholino-3-oxoprop-1-en-1-yl)-2-thia-4-azabicyclo[4.1.0]hept-3-en-5-yl)-4-fluorophenyl)ethynyl)nicotinonitrile] |  |
| 9 | 143000 | 1900 | 47 | N#Cc1cnc(C#Cc2ccc(F)c([C@@]3(CF)N=C(N)S[C@@]4(/C=C/C(=O)N5CCOCC5)C[C@H]43)c2)nc1 [Example 121, 2-((3-((1R,5S,6S)-3-amino-5-(fluoromethyl)-1-((E)-3-morpholino-3-oxoprop-1-en-1-yl)-2-thia-4-azabicyclo[4.1.0]hept-3-en-5-yl)-4-fluorophenyl)ethynyl)pyrimidine-5-carbonitrile] |  |
